Measured values reported in ChEMBL document CHEMBL1129774, “Antitumor agents 171. Cytotoxicities of lobatosides B, C, D, and E, cyclic bisdesmosides isolated from Actinostemma lobatum maxim” (1996).
Where “and” joins values, the source holds several entries; their conditions need not be identical. Equal entries are not always repeated.

How the values were obtained:
Assay type in all cases: functional
SK-MEL-28 = experiment: In vitro cytotoxicity against human melanoma SK-MEL-28 cancer cell line.
HCC 2998 = experiment: In vitro cytotoxicity against human colon cancer HCC2998 cell line.
A549 = experiment: In vitro cytotoxicity against human Non-small cell lung cancer A549/ATCC cell line.
SK-MEL-5 = experiment: In vitro cytotoxicity against human melanoma SK-MEL-5 cancer cell line.
SF-295 = experiment: In vitro cytotoxicity against human CNS cancer SF-295 cell line.
UO-31 = experiment: In vitro cytotoxicity against human renal cancer UO-31 cell line
OVCAR-5 = experiment: In vitro cytotoxicity against human ovarian cancer OVCAR-5 cell line
MDA-MB-435 = experiment: In vitro cytotoxicity against human […] MDA-MB-435 cell line
PC-3 = experiment: In vitro cytotoxicity against human prostate cancer PC-3 cell line
HL-60 = experiment: In vitro cytotoxicity against human leukemia HL-60(TB) cancer cell line

Row | SMILES | GI50 (SK-MEL-28) [nM] | GI50 (HCC 2998) | GI50 (A549) [nM] | GI50 (SK-MEL-5) [nM] | GI50 (SF-295) [nM] | GI50 (UO-31) [nM] | GI50 (OVCAR-5) [nM] | GI50 (MDA-MB-435) [nM] | GI50 (PC-3) [nM] | GI50 (HL-60) [nM] | GI50 (HCC 2998; Homo sapiens, HCC 2998) [nM]
1 | C[C@@H]1O[C@H]2O[C@H]3[C@@H](OC[C@H](O)[C@@H]3O)OC(=O)[C@@]34CCC5C(=CC[C@@H]6[C@@]7(C)C[C@H](O)[C@H](O[C@@H]8O[C@H](CO)[C@@H](O)[C@H](O)[C@H]8O[C@@H]8O[C@H](CO)[C@H](O)[C@H](O)[C@H]8OC(=O)CC(C)(O)CC(=O)O[C@@H]1[C@@H](O[C@@H]1O[C@H](CO)[C@@H](O)[C@H](O)[C@H]1O)[C@H]2O)C(C)(C)[C@@H]7CC[C@@]56C)[C@@H]3CC(C)(C)CC4 (stereo partly specified) | 1290 | 1410 nM and 360 nM | 140 | 140 | 1510 | 1620 | 2000 | 1450 | 1950 | 1450 | –
2 | C[C@@H]1O[C@H]2O[C@H]3[C@@H](OC[C@H](O)[C@@H]3O)OC(=O)[C@@]34CCC5C(=CC[C@@H]6[C@@]7(C)C[C@H](O)[C@H](O[C@@H]8O[C@H](CO)[C@@H](O)[C@H](O)[C@H]8O[C@H]8OC[C@H](OC(=O)CC(C)(O)CC(=O)O[C@@H]1[C@@H](O[C@@H]1O[C@H](CO)[C@@H](O)[C@H](O)[C@H]1O)[C@H]2O)C(O)[C@H]8O)C(C)(C)[C@@H]7CC[C@@]56C)[C@@H]3CC(C)(C)CC4 (stereo partly specified) | 1940 | 2450 nM and 9330 nM | 3890 | 11400 | 4070 | 4470 | 8910 | 2450 | 7940 | 1820 | –
3 | C[C@@H]1O[C@H]2O[C@H]3[C@@H](OC[C@H](O)[C@@H]3O)OC(=O)[C@@]34CC[C@@H]5C(=CC[C@H]6[C@@]5(C)CC[C@H]5C(C)(C)[C@@H](O[C@@H]7O[C@H](CO)[C@@H](O)[C@H](O)[C@H]7O[C@H]7OC[C@H](OC(=O)CC(C)(O)CC(=O)O[C@@H]1[C@@H](O)[C@H]2O)[C@H](O)[C@H]7O)[C@@H](O)C[C@]65C)[C@@H]3CC(C)(C)CC4 (stereo partly specified) | 1940 | 2400 nM and 8910 nM | 2240 | 4170 | 3390 | 6030 | 1320 | 5890 | 2190 | 1780 | –
4 | C[C@@H]1O[C@H]2OC3[C@@H](OC[C@H](O)[C@@H]3O)OC(=O)[C@@]34CC[C@@H]5C(=CC[C@H]6[C@@]5(C)CC[C@H]5C(C)(C)[C@@H](O[C@@H]7O[C@H](CO)[C@@H](O)[C@H](O)[C@H]7O[C@@H]7O[C@H](CO)[C@@H](O)[C@H](O)[C@H]7OC(=O)CC(C)(O)CC(=O)O[C@@H]1[C@@H](O)[C@H]2O)[C@@H](O)C[C@]65C)[C@@H]3CC(C)(C)CC4 (stereo partly specified) | 1510 | 1150 nM | 1320 | 1200 | 1780 | 1230 | 1620 | 1580 | 1380 | 1410 | 1320
